{
  "source": "paper PMC4979471",
  "about": "(Cell Death Discovery, 2015)",
  "assay_in_all_cases": "Kinase selectivity, P33-radiolabeled assay",
  "type_in_all_cases": "biochemical",
  "conditions_in_all_cases": "10 μM ATP",
  "key": {"AKT3": {"biological_target": "T1, AKT3 (Homo sapiens, UniProt Q9Y243)", "T1 construct": "purchased Reaction Biology Corp", "T1 sequence (Q9Y243 whole entry)": "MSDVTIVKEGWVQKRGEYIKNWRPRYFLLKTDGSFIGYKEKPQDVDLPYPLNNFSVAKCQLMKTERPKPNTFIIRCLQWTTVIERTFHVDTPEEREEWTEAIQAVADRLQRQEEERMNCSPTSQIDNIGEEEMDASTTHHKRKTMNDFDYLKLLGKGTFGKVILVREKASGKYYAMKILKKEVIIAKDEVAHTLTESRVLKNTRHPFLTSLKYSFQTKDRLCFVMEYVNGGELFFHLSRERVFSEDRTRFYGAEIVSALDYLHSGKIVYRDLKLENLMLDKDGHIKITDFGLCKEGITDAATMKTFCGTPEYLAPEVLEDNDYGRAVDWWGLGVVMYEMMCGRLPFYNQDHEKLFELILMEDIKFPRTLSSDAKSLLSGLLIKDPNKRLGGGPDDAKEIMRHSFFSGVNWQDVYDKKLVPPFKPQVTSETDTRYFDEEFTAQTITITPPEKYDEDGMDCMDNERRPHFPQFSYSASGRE", "method_in_brief": "(§1)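 ATP at 10 μM; test article at 10 μM, single point, two replicates. Output is activity as % of DMSO.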"}, "DAPK2": {"biological_target": "T2, DAPK2 (Homo sapiens, UniProt Q9UIK4)", "T2 construct": "purchased Reaction Biology Corp", "T2 sequence (Q9UIK4 whole entry)": "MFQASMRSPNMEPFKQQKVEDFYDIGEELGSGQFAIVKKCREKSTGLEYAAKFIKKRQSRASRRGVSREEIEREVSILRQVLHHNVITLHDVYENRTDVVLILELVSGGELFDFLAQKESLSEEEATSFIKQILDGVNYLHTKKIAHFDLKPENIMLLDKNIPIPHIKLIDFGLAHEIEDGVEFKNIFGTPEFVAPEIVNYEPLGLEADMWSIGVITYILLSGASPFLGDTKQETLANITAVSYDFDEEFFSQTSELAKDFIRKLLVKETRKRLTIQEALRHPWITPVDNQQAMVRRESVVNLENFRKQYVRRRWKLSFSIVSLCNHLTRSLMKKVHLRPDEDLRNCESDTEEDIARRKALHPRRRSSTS", "method_in_brief": "as §1"}, "EPHA8": {"biological_target": "T3, EPHA8 (Homo sapiens, UniProt P29322)", "T3 construct": "purchased Reaction Biology Corp", "T3 sequence (P29322 28-1005)": "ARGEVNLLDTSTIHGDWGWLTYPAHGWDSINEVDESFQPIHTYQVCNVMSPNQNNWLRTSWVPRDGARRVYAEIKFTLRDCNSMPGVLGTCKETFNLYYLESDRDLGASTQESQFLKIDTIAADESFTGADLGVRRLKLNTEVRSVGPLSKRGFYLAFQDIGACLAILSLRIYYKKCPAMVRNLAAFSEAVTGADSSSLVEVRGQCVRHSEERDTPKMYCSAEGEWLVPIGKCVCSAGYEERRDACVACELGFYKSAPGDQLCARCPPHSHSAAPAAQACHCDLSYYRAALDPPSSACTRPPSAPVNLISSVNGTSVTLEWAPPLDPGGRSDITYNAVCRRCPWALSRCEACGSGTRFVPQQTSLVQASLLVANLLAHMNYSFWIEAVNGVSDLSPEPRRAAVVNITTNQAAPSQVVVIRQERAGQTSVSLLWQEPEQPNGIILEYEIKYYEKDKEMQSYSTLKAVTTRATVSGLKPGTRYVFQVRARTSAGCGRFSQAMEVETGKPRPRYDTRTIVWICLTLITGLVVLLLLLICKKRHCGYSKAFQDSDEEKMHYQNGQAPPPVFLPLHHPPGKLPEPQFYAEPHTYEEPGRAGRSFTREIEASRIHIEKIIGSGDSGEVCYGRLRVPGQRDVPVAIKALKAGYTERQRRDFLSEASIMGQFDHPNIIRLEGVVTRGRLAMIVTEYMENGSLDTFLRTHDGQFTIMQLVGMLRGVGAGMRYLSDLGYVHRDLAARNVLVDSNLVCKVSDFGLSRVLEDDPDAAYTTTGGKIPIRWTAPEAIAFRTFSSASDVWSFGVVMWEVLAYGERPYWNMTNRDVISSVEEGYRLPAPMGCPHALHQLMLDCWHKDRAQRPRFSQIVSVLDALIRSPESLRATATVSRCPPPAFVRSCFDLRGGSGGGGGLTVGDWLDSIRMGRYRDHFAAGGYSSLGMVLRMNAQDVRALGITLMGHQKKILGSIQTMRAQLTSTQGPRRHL", "method_in_brief": "as §1"}, "NIK/MAP3K14": {"biological_target": "T4, NIK/MAP3K14 (Homo sapiens, UniProt Q99558)", "T4 construct": "purchased Reaction Biology Corp", "T4 sequence (Q99558 whole entry)": "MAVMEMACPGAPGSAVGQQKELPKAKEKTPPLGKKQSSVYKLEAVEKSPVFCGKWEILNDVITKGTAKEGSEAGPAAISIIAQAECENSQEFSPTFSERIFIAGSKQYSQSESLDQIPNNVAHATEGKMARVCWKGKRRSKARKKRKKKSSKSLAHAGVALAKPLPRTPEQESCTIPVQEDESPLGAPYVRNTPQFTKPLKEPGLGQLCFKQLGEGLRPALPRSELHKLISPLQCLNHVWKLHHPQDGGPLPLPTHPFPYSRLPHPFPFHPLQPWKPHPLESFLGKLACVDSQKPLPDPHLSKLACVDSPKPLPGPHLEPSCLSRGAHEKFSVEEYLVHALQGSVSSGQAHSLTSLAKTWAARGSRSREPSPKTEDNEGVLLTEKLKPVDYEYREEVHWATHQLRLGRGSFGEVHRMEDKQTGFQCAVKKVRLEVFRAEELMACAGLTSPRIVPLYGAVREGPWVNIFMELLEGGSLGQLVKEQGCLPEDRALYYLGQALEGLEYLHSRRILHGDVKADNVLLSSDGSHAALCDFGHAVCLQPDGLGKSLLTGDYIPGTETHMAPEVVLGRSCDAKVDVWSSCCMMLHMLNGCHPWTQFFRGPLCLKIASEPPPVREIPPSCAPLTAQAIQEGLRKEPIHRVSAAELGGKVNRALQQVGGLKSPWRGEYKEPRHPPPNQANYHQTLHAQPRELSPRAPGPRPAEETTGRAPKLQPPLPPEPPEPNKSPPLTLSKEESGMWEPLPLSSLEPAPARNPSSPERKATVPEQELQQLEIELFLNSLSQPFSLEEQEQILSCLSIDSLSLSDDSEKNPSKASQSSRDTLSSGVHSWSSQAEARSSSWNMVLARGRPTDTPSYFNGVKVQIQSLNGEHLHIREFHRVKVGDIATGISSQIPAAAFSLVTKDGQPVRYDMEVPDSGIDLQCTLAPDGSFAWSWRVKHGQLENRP", "method_in_brief": "as §1"}, "PAK5": {"biological_target": "T5, PAK5 (Homo sapiens, UniProt Q9P286)", "T5 construct": "purchased Reaction Biology Corp", "T5 sequence (Q9P286 whole entry)": "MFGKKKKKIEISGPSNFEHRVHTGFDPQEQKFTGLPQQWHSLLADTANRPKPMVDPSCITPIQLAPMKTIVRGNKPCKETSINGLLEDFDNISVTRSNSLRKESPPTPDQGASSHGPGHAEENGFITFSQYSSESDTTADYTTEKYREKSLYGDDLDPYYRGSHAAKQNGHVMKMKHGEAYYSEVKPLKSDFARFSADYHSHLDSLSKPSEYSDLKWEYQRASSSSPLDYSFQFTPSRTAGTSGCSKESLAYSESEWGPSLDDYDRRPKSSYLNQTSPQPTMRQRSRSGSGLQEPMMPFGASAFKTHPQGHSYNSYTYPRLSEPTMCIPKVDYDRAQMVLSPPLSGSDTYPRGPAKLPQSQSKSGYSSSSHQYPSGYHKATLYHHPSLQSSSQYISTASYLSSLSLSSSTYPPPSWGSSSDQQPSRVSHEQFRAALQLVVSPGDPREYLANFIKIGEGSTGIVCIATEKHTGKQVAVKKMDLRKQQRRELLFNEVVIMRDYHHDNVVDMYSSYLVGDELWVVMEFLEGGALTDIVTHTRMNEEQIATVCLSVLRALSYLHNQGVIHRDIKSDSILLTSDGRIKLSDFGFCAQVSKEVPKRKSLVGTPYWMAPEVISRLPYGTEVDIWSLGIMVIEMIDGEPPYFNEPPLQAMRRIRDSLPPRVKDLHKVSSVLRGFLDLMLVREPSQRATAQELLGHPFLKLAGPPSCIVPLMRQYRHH", "method_in_brief": "as §1"}, "PKCepsilon": {"biological_target": "T6, PKCepsilon (Homo sapiens, UniProt Q02156)", "T6 construct": "purchased Reaction Biology Corp", "T6 sequence (Q02156 1-737)": "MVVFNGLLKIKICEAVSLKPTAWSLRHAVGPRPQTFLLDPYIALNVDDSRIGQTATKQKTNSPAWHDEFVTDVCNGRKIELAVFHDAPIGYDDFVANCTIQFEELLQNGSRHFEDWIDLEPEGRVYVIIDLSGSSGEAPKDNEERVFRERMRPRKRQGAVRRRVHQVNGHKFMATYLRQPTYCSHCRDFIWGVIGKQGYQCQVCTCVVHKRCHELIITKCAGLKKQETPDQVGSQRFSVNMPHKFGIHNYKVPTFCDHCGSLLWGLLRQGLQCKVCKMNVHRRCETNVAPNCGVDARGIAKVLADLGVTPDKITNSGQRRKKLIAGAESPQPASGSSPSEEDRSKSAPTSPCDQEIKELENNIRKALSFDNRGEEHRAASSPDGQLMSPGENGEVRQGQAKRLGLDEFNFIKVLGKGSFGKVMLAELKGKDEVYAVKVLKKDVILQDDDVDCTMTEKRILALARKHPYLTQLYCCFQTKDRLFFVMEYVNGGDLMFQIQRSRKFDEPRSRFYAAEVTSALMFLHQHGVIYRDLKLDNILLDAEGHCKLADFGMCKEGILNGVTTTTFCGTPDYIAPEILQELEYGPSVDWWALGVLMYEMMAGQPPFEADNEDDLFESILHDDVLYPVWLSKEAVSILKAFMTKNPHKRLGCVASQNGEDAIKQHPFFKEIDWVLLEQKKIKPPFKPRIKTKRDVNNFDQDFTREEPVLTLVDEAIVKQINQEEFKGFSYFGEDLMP", "method_in_brief": "as §1"}, "PKG1a": {"biological_target": "T7, PKG1a (Homo sapiens, UniProt Q13976)", "T7 construct": "purchased Reaction Biology Corp", "T7 sequence (Q13976 1-671)": "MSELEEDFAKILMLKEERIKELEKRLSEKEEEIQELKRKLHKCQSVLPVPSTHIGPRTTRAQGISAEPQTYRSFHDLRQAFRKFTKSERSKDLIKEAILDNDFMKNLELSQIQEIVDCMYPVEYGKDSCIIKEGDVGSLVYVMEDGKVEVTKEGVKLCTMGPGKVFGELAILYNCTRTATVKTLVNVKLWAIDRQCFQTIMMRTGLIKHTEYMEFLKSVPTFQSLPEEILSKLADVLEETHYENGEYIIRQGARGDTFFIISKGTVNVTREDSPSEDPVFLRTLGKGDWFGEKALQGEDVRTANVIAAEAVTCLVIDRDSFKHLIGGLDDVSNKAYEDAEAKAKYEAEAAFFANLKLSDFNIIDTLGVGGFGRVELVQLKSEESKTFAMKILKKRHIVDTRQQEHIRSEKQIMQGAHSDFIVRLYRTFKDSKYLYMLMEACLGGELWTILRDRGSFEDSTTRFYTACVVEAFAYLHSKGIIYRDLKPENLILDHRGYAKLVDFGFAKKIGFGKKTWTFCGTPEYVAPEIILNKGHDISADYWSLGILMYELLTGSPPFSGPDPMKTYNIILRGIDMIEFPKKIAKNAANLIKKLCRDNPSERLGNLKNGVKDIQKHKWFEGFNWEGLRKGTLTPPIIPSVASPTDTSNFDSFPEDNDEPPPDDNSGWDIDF", "method_in_brief": "as §1"}, "[1]": {"conditions": "read-out: % Enzyme Activity (relative to DMSO controls) AVG"}, "[2]": {"conditions": "read-out: % Enzyme Activity (relative to DMSO controls) Data 1"}, "[3]": {"conditions": "read-out: % Enzyme Activity (relative to DMSO controls) Data 2"}},
  "note": "Read-outs that look alike come from different tables or passages of the source.",
  "data": [
    {"smiles": "CC(C)(C)C(=O)N1N=CC[C@H]1c1ccccc1", "note": "[GSK′963]", "values": [
      {"measurement": "remaining activity at 10 µM", "setting": "AKT3; [1]", "value": 102, "unit": "%"},
      {"measurement": "remaining activity at 10 µM", "setting": "AKT3; [2]", "value": 100, "unit": "%"},
      {"measurement": "remaining activity at 10 µM", "setting": "AKT3; [3]", "value": 103, "unit": "%"},
      {"measurement": "remaining activity at 10 µM", "setting": "DAPK2; [1]", "value": 105, "unit": "%"},
      {"measurement": "remaining activity at 10 µM", "setting": "DAPK2; [2]", "value": 104, "unit": "%"},
      {"measurement": "remaining activity at 10 µM", "setting": "DAPK2; [3]", "value": 105, "unit": "%"},
      {"measurement": "remaining activity at 10 µM", "setting": "EPHA8; [1]", "value": 96.6, "unit": "%"},
      {"measurement": "remaining activity at 10 µM", "setting": "EPHA8; [2]", "value": 97.5, "unit": "%"},
      {"measurement": "remaining activity at 10 µM", "setting": "EPHA8; [3]", "value": 95.7, "unit": "%"},
      {"measurement": "remaining activity at 10 µM", "setting": "NIK/MAP3K14; [1]", "value": 98.2, "unit": "%"},
      {"measurement": "remaining activity at 10 µM", "setting": "NIK/MAP3K14; [2]", "value": 93.4, "unit": "%"},
      {"measurement": "remaining activity at 10 µM", "setting": "NIK/MAP3K14; [3]", "value": 103, "unit": "%"},
      {"measurement": "remaining activity at 10 µM", "setting": "PAK5; [1]", "value": 124, "unit": "%"},
      {"measurement": "remaining activity at 10 µM", "setting": "PAK5; [2]", "value": 119, "unit": "%"},
      {"measurement": "remaining activity at 10 µM", "setting": "PAK5; [3]", "value": 128, "unit": "%"},
      {"measurement": "remaining activity at 10 µM", "setting": "PKCepsilon; [1]", "value": 105, "unit": "%"},
      {"measurement": "remaining activity at 10 µM", "setting": "PKCepsilon; [2]", "value": 103, "unit": "%"},
      {"measurement": "remaining activity at 10 µM", "setting": "PKCepsilon; [3]", "value": 106, "unit": "%"},
      {"measurement": "remaining activity at 10 µM", "setting": "PKG1a; [1]", "value": 90, "unit": "%"},
      {"measurement": "remaining activity at 10 µM", "setting": "PKG1a; [2]", "value": 92.4, "unit": "%"},
      {"measurement": "remaining activity at 10 µM", "setting": "PKG1a; [3]", "value": 87.7, "unit": "%"}
    ]}
  ]
}
